The text below walks through data of patent publication US20210260018A1, “COMPOSITION FOR TREATING FIBROTIC DISEASES, […] THI[…] AS ACTIVE INGREDIENT” (Cellion Biomed Inc., priority 2018, published 2021).

For test [1], the system named is KCa2.3 channel. The test can be described thus: KCa2.3 channel protein expression in hepatic stellate cells (western blotting). Type of test: cell-based, human. To be noted: exposure for 24 hours. How it is done:
(§1) Fibroblasts (CRL-2795; American Type Culture Collection, VA) were cultured in a Dulbecco's Modified Eagle Medium (Hyclone, Logan, Utah), human uterine microvascular endothelial cells (PromoCell GmbH, Heidelberg, Germany) were cultured in an MV2 medium (PromoCell GmbH), and human hepatic stellate cells (Innoprot, Bizkia, Spain) were cultured in a P60126 medium (Innoprot).
(§2) All cells were maintained under a 5% humidified carbon dioxide condition at 37° C. The cultured cells were exposed to each of PDGF, TGFβ, and the compounds of Formulas A1 to A9 (CBM-N1 N9) for 24 hours, followed by performing experiments.
Cells were lysed with a protein extraction buffer solution, a protein concentration in a supernatant was determined by Bradford analysis, and […] of the protein was loaded on an SDS-PAGE gel and then transferred to a nitrocellulose membrane. The nitrocellulose membrane was blocked with 5% BSA-containing TEST (10 mM Tris-HCl, 150 mM NaCl, and 0.1% (v/v) Tween-20, pH 7.6) at room temperature for 1 hour. Blots were incubated overnight with primary antibodies, and then incubated with horseradish peroxidase-conjugated secondary antibodies for 1 hour. Bands were visualized by chemiluminescence. Data collection and processing were performed using an image analyzer (LAS-3000) and IMAGE GAUSE software (Fuji film, Japan).
(In western blotting, separated proteins are transferred to a membrane and probed.)

Test [2] deals with KCa2.3 channel. Nature of the test: KCa2.3 current in hepatic stellate cells (whole-cell patch-clamp). The test is classed as cell-based, human. To be noted: membrane potential of 1-50 mV, exposure for 24 hours. Here is the method:
as §1, §2
A whole cell current through a cell membrane in the isolated and cultured single cells was measured using a patch-clamp technique. […]
A standard external solution contained 150 mM NaCl, 6 mM KCl, 1.5 mM CaCl2), 1 mM MgCl2, 10 mM HEPES and 10 mM glucose at pH 7.4 (titrated NaOH), and a micro glass electrode (pipette) solution contained 40 mM KCl, 100 mM K-aspartate, 2 mM MgCl2, 0.1 mM EGTA, 4 mM Na2ATP and 10 mM HEPES at pH 7.2 (titrated with KOH). A free Ca^2+ concentration in the pipette solution was adjusted to 1 μM by adding an appropriate amount of Ca^2+ in the presence of 5 mM EGTA (calculated with CaBuf; Droogmans, Leuven, Belgium), […]
On the technique in general: Patch clamp records ionic current or voltage across a cell membrane.

The subject of the next test is fibroblasts. Nature of the test: MTT cell proliferation in fibroblasts exposed to TGFβ or PDGF. To be noted: fibroblasts, TGFβ (5 ng/ml) or PDGF (20 ng/ml), 24 hours. Type of test: cell-based. How it is done: as §1, §2
Cells were seeded in 96-well plates at 2×10^4 cells/well, and then exposed to TGFB, which promotes cell proliferation, for 24 hours. In addition, 0.1 mg of MTT was added to each well, followed by exposure for 4 hours at 37° C. Afterward, the culture medium was removed, the cells were lysed with dimethyl sulfoxide, and then absorbance was measured at 590 nm using the following devices.

The test system of test [3] is bleomycin-induced pulmonary fibrosis mouse models. The test can be described thus: Bleomycin-induced pulmonary inflammation and fibrosis mouse model. Type of test: in vivo. To be noted: lung tissue, bleomycin mice. How it is done:
To confirm the effect of the compound of Formula A9 (CBM-N9) on pulmonary inflammation and fibrosis caused by bleomycin, the following experiments were performed on C57BL/6 wild-type mice. First, the mice were divided into a normal control, a disease-induced group, and a drug-administered group, and ten mice were included in each of the three groups. A drug treatment method for the mice in each group is as follows:
(1) Normal control: The same amount of distilled water as used when the bleomycin was applied in the disease-induced group was instilled intratracheally. In addition, a CBM-N9 solvent was intraperitoneally injected at the same amount used when CBM-N9 was administered to the disease-induced group to be described below five times a week.
(2) Disease-induced group: 1.5 units of bleomycin was instilled intratracheally. In addition, a CBM-N9 solvent was intraperitoneally injected at the same amount used in CBM-N9 administration five times a week.
(3) Drug-administered group: 1.5 units of bleomycin was intratracheally instilled. In addition, CBM-N9 (50 mg/kg) was injected intraperitoneally five times a week.
The mice treated with the drug for 4 weeks in the same manner as described above were instantly killed by excessively administering an anesthetic, and then the lungs were extracted.
To histologically confirm the therapeutic effect of the compound of Formula A1 (CBM-N1) or the compound of Formula A9 (CBM-N9) in each mouse model, a paraffin tissue sample was prepared. Liver and lung tissues were fixed with a paraformaldehyde solution, and sliced to a thickness of 1 to 2 mm. The sectioned tissues were embedded in paraffin, sliced to a thickness of 4 μm to remove paraffin with xylene, and the xylene was removed with ethanol, followed by washing with tap water. […]
Cells were lysed with a protein extraction buffer solution, a protein concentration in a supernatant was determined by Bradford analysis, and […] of the protein was loaded on an SDS-PAGE gel and then transferred to a nitrocellulose membrane. […]

Take `NC(=O)C[S+]([O-])C(c1ccc(F)cc1)c1ccc(F)cc1` (stereo not drawn) [CBM-N9, 2-[bis(4-fluorophenyl)methanesulfinyl]acetamide]: in the test on KCa2.3 channel [1], the “expression of the KCa2.3 channel protein” value is “significantly reduced”. Also, the “KCa2.3 current densities versus cells not exposed” value with KCa2.3 channel [2] is reported as “significantly decreased”. For the same compound, in the test with fibroblasts, the “TGFβ or PDGF-induced cell proliferation” value is “significantly reduced”. In addition, the “degrees of inflammation and fibrosis (H&E, CD45 immunohistochemistry, Masson's trichrome)” value in test [3] (50 mg/kg intraperitoneally five times a week, 4 weeks, versus disease-induced group) was “decreased”. In addition, the “protein expression levels of inflammation markers TIMP-2 and CCR2” value in test [3] (FIG. 13A) is “greatly decreased”. Besides, the “expression of fibrosis marker proteins (printed: protein expression levels of TIMP-2 and, CCR2)” value in test [3] (FIG. 13B) is given as “greatly decreased”.
